Source: patent publication US7192906B2, “Substituted pyrazole derivatives, production process thereof, and herbicide compositions containing the derivatives” (SDS Biotech K.K., priority 2001, dated 2007)

Columns and labels:
Assay type in all cases: in vivo
Digitaria adscendens [1] = assay: Test Example 2 upland soil treatment; conditions: Table 5, upland soil treatment, index 0-5
In short: (§1)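 Score 0–5 read at day 21 (5 = ≥90% effect or phytotoxicity, 0 = <10%). Wettable powder diluted in water to 1 kg a.i./ha, applied uniformly to upland soil one day after sowing; seeds covered with ~1 cm soil.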

Stellaria media [2] = assay: Test Example 2 upland soil treatment; conditions: Table 5, upland soil treatment, index 0-5
In short: as §1

Chenopodium album [3] = assay: Test Example 2 upland soil treatment; conditions: Table 5, upland soil treatment, index 0-5
In short: as §1

Setaria viridis [4] = assay: Test Example 2 upland soil treatment; conditions: Table 5, upland soil treatment, index 0-5
In short: as §1

Scirpus juncoides = assay: Test Example 3 paddy field treatment; conditions: Table 6, paddy field treatment, active ingredient 1 kg per hectare, 21st day after dropping, index 0-5
In short: (§2)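 Weed seeds sown in puddled paddy soil under 4 cm water, with two-leaf Koshihikari rice transplanted; 10 days later a wettable powder was applied to the water surface at 1 kg active ingredient/ha. Scored 21 days after application on a 0–5 scale (0 = <10%, 5 = ≥90% herbicidal effect or phytotoxicity).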

Ammannia multiflora = assay: Test Example 3 paddy field treatment; conditions: Table 6, paddy field treatment, active ingredient 1 kg per hectare, 21st day after dropping, index 0-5
In short: as §2

Echinochloa crusgalli = assay: Test Example 3 paddy field treatment; conditions: Table 6, paddy field treatment, active ingredient 1 kg per hectare, 21st day after dropping, index 0-5
In short: as §2

Monochoria vaginalis = assay: Test Example 3 paddy field treatment; conditions: Table 6, paddy field treatment, active ingredient 1 kg per hectare, 21st day after dropping, index 0-5
In short: as §2

Digitaria adscendens [5] = assay: Test Example 1 upland field foliage treatment; conditions: Table 4, upland field foliage treatment, index 0-5
In short: (§3)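 Seeds sown in upland soil in pots and covered with about 1 cm soil; on day 14 after sowing, diluted wettable powder applied uniformly to leaves at 1 kg active ingredient per hectare. Weed control or crop phytotoxicity scored visually 21 days after application on a 0–5 scale (5 = ≥90%, 0 = <10%).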

Stellaria media [6] = assay: Test Example 1 upland field foliage treatment; conditions: Table 4, upland field foliage treatment, index 0-5
In short: as §3

Chenopodium album [7] = assay: Test Example 1 upland field foliage treatment; conditions: Table 4, upland field foliage treatment, index 0-5
In short: as §3

Setaria viridis [8] = assay: Test Example 1 upland field foliage treatment; conditions: Table 4, upland field foliage treatment, index 0-5
In short: as §3

[9] = test system: wheat (Triticum aestivum); assay: Test Example 1 upland field foliage treatment, crop phytotoxicity; conditions: Table 4, upland field foliage treatment, index 0-5
In short: as §3

soybean (Glycine max) [10] = assay: as above; conditions: Table 4, upland field foliage treatment, index 0-5
In short: as §3

[11] = test system: wheat (Triticum aestivum); assay: Test Example 2 upland soil treatment, crop phytotoxicity; conditions: Table 5, upland soil treatment, index 0-5
In short: as §1

soybean (Glycine max) [12] = assay: as above; conditions: Table 5, upland soil treatment, index 0-5
In short: as §1

Rice (Oryza sativa) = assay: Test Example 3 paddy field treatment, crop phytotoxicity; conditions: Table 6, paddy field treatment, transplanted rice, active ingredient 1 kg per hectare, 21st day after dropping, index 0-5
In short: as §2

Compound	Herbicidal activity DA: Digitaria adscendens (Digitaria adscendens [1])	Herbicidal activity SM: Stellaria media (Stellaria media [2])	Herbicidal activity CA: Chenopodium album (Chenopodium album [3])	Herbicidal activity SV: Setaria viridis (Setaria viridis [4])	Herbicidal activity SJ (Scirpus juncoides)	Herbicidal activity AM (Ammannia multiflora)	Herbicidal activity EC (Echinochloa crusgalli)	Herbicidal activity MV (Monochoria vaginalis)	Herbicidal activity DA: Digitaria adscendens (Digitaria adscendens [5])	Herbicidal activity SM: Stellaria media (Stellaria media [6])	Herbicidal activity CA: Chenopodium album (Chenopodium album [7])	Herbicidal activity SV: Setaria viridis (Setaria viridis [8])	Herbicidal activity (phytotoxicity) TA: Wheat (Triticum aestivum) [9]	Herbicidal activity (phytotoxicity) GM: Soybean (Glycine max) (soybean (Glycine max) [10])	Herbicidal activity (phytotoxicity) TA: Wheat (Triticum aestivum) [11]	Herbicidal activity (phytotoxicity) GM: Soybean (Glycine max) (soybean (Glycine max) [12])	Herbicidal activity (phytotoxicity) OS (Rice (Oryza sativa))
CNC(=O)C(Cn1cc(C)c(-c2cc(F)ccc2F)n1)=NOC [Compound 57]	5 (herbicidal effect of not less than 90%, or phytotoxicity of 90% or more)	5 (herbicidal effect of not less than 90%, or phytotoxicity of 90% or more)	5 (herbicidal effect of not less than 90%, or phytotoxicity of 90% or more)	5 (herbicidal effect of not less than 90%, or phytotoxicity of 90% or more)	5 (herbicidal effect of not less than 90%, or phytotoxicity of 90% or more)	5 (herbicidal effect of not less than 90%, or phytotoxicity of 90% or more)	5 (herbicidal effect of not less than 90%, or phytotoxicity of 90% or more)	5 (herbicidal effect of not less than 90%, or phytotoxicity of 90% or more)	5 (herbicidal effect of not less than 90%, or phytotoxicity of 90% or more)	5 (herbicidal effect of not less than 90%, or phytotoxicity of 90% or more)	5 (herbicidal effect of not less than 90%, or phytotoxicity of 90% or more)	5 (herbicidal effect of not less than 90%, or phytotoxicity of 90% or more)	0 (herbicidal effect of not less than 0% and less than 10%, or phytotoxicity of 0% or more and less than 10%)	0 (herbicidal effect of not less than 0% and less than 10%, or phytotoxicity of 0% or more and less than 10%)	0 (herbicidal effect of not less than 0% and less than 10%, or phytotoxicity of 0% or more and less than 10%)	0 (herbicidal effect of not less than 0% and less than 10%, or phytotoxicity of 0% or more and less than 10%)	0 (herbicidal effect of not less than 0% and less than 10%, or phytotoxicity of 0% or more and less than 10%)
CNC(=O)C(Cn1cc(C)c(-c2ccc(F)c(F)c2)n1)=NOC [Compound 59]	5 (herbicidal effect of not less than 90%, or phytotoxicity of 90% or more)	5 (herbicidal effect of not less than 90%, or phytotoxicity of 90% or more)	5 (herbicidal effect of not less than 90%, or phytotoxicity of 90% or more)	5 (herbicidal effect of not less than 90%, or phytotoxicity of 90% or more)	5 (herbicidal effect of not less than 90%, or phytotoxicity of 90% or more)	5 (herbicidal effect of not less than 90%, or phytotoxicity of 90% or more)	5 (herbicidal effect of not less than 90%, or phytotoxicity of 90% or more)	5 (herbicidal effect of not less than 90%, or phytotoxicity of 90% or more)	5 (herbicidal effect of not less than 90%, or phytotoxicity of 90% or more)	5 (herbicidal effect of not less than 90%, or phytotoxicity of 90% or more)	5 (herbicidal effect of not less than 90%, or phytotoxicity of 90% or more)	5 (herbicidal effect of not less than 90%, or phytotoxicity of 90% or more)	0 (herbicidal effect of not less than 0% and less than 10%, or phytotoxicity of 0% or more and less than 10%)	0 (herbicidal effect of not less than 0% and less than 10%, or phytotoxicity of 0% or more and less than 10%)	0 (herbicidal effect of not less than 0% and less than 10%, or phytotoxicity of 0% or more and less than 10%)	0 (herbicidal effect of not less than 0% and less than 10%, or phytotoxicity of 0% or more and less than 10%)	0 (herbicidal effect of not less than 0% and less than 10%, or phytotoxicity of 0% or more and less than 10%)
